Assays:
[1] = system: different Candida species; assay: Biofilm of Candida species; type: cell-based; conditions: found by the present inventors
[2] = system: several strains of bacteria; assay: Biofilm of bacteria; type: cell-based; conditions: found by the present inventors
[3] = system: different Candida species; conditions: WO 2017/174731, WO 2019/068862; cited from earlier work
Candida albicans = conditions: preclinical studies; WO 2017/174731; cited from earlier work
[4] = oral doses between 3 g and 50 g; cited from earlier work
[5] = system: several strains of bacteria; conditions: WO 2017/174731, WO 2019/068862; cited from earlier work
[6] = IPCS 1999; 21CFR184.1318; cited from earlier work

O=C1O[C@H](CO)[C@@H](O)[C@H](O)[C@H]1O [GDL, glucono-δ-lactone]
formation of biofilm [1]: has an effect on the formation of biofilm
formation of biofilm [2]: has an effect on the formation of biofilm
presence / formation of biofilm [3]: significantly reduced
Candida albicans present in the hyphal, i.e. the pathogenic form (Candida albicans): significant reduction
signs of toxicity [4]: no signs of toxicity

O=C(O)[C@H](O)[C@@H](O)[C@H](O)[C@H](O)CO [gluconic acid]
presence / formation of biofilm [3]: reduces the presence of biofilm
presence of biofilm [5]: reduces the presence of biofilm
carcinogenicity, teratogenicity, or genotoxicity [6]: no evidence
